This note sets out measurements from patent US20250387400A1, “TYK2 INHIBITORS” (BIOGEN MA INC., priority 2022, published 2025).

Where two headings read alike, the source gives them in different places.

Format in all cases: biochemical
The target of experiment [1] is T1, catalytic kinase (JH1) domain of human TYK2 (Homo sapiens, UniProt P29597).
T1 construct: recombinantly generated catalytic kinase (also known as JH1) domain of human JAK1, JAK2, JAK3 and TYK2
T1 sequence (P29597 897-1176 limits assumed): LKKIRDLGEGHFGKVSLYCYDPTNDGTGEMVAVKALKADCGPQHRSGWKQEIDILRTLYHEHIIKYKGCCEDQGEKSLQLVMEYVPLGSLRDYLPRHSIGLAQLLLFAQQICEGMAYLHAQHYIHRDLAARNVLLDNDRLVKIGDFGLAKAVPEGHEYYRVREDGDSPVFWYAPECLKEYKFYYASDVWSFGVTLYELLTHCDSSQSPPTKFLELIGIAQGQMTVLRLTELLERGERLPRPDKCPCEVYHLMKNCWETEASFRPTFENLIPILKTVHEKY
The experiment is described as follows: ADP-Glo kinase assay, TYK2 kinase domain. The method, then:
(§1) As summarized in Table 3 below, compounds of the disclosure were assessed for their ability to inhibit TYK2, JAK1, JAK2, and JAK3 activity.
(§2) The kinase activity of recombinantly generated catalytic kinase (also known as JH1) domain of human JAK1, JAK2, JAK3 and TYK2 were evaluated in a plate-based assay using the ADP-Glo™ Kinase Assay platform. […] The reactions proceed for 100 minutes and the catalytic activity is quantified by first depleting the unused ATP, converting the hydrolyzed ADP into ATP to generate luminescence in a luciferase reaction; which is the basis of the ADP-Glo platform. Compounds are tested at either 10 μM or 1 μM top concentration, 11 points of 3-fold dilution. The data is normalized and the percent activity versus log concentration of compound is fitted with a 4-parameter logistic model to generate a curve and an IC50 value.
Background: ADP-Glo first removes unused ATP, then detects ADP through luciferase.

The target in experiment [2] is T2, catalytic kinase (JH1) domain of human JAK1 (Homo sapiens, UniProt P23458).
T2 construct: 4 nM of recombinant JAK1 kinase domain is used to phosphorylate
T2 sequence (P23458 875-1153 limits assumed): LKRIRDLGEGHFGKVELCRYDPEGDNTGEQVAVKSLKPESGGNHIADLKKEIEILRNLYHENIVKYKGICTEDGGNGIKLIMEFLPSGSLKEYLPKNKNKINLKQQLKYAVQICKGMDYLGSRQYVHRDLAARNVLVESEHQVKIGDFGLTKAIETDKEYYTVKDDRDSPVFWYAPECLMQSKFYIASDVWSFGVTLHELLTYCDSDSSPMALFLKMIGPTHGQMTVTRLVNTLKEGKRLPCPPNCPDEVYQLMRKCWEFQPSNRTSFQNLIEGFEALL
The experiment is described as follows: ADP-Glo kinase assay, JAK1 kinase domain. The method, then:
as §1, §2

Experiment [3] has as its target T3, catalytic kinase (JH1) domain of human JAK2 (Homo sapiens, UniProt O60674).
T3 construct: Catalytic activities of recombinant JAK2, JAK3 and TYK2 kinase domain
Briefly: ADP-Glo kinase assay, JAK2 kinase domain. Here is the method: as §1, §2

The target in experiment [4] is T4, catalytic kinase (JH1) domain of human JAK3 (Homo sapiens, UniProt P52333).
T4 construct: Catalytic activities of recombinant JAK2, JAK3 and TYK2 kinase domain
T4 sequence (P52333 822-1111 limits assumed): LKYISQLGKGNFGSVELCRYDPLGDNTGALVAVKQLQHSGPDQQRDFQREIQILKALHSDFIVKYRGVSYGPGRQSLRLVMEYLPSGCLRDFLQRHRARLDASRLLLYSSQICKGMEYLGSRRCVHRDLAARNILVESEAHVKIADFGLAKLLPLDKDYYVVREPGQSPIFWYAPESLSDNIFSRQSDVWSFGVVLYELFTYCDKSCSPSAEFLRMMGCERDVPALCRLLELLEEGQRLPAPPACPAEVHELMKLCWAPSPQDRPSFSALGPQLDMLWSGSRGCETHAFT
The experiment is described as follows: ADP-Glo kinase assay, JAK3 kinase domain. The method, then:
as §1, §2

The mark [5] stands for this setting: 2 nM recombinant TYK2 kinase domain, 50 μM JAK3-974 peptide, 10 μM ATP, 100 minutes, read-out: TYK2 biochem IC50 (nM) Mean.
Where [6] appears, read: 4 nM recombinant JAK1 kinase domain, 50 μM JAK3-342 peptide, 35 μM ATP, 100 minutes, read-out: JAK1 biochem IC50 (nM) Mean.
Setting [7] is: 0.2 nM recombinant JAK2 kinase domain, 50 μM JAK3-974 peptide, 15 μM ATP, 100 minutes, read-out: JAK2 biochem IC50 (nM) Mean.
Setting [8] is: 0.3 nM recombinant JAK3 kinase domain, 50 μM JAK3-974 peptide, 4 μM ATP, 100 minutes, read-out: JAK3 biochem IC50 (nM) Mean.

T3 sequence (O60674 849-1124 limits assumed): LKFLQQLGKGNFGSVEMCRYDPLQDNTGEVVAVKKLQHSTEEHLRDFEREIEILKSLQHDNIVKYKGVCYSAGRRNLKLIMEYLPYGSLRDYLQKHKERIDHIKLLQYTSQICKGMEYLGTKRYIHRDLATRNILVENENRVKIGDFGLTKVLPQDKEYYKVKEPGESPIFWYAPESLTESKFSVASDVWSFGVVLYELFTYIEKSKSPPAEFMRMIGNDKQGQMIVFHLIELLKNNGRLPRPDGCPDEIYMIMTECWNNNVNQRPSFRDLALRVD

The IC50 is the point on the concentration scale where inhibition reaches its midpoint. As for `Cn1cc(-c2cc3c(N4CC5CCC(C4)N5[C@H]4C[C@H](O)C4)ccnn3c2)cn1` [Example 31, (1R,3r)-3-(3-(6-(1-methyl-1H-pyrazol-4-yl)pyrrolo[1,2-b]pyridazin-4-yl)-3,8-diazabicyclo[3.2.1]octan-8-yl)cyclobutan-1-ol], the IC50 in experiment [1] (setting [5]) was 205 nM; in experiment [2] (setting [6]), 9200 nM; in experiment [3] (setting [7]), 4000 nM; in experiment [4] (setting [8]), over 10000 nM.

Take `Cn1cc(-c2cc3c(N4CC5CCC(C4)N5[C@H]4C[C@@H](O)C4)ccnn3c2)cn1` [Example 32, (1S,3s)-3-(3-(6-(1-methyl-1H-pyrazol-4-yl)pyrrolo[1,2-b]pyridazin-4-yl)-3,8-diazabicyclo[3.2.1]octan-8-yl)cyclobutan-1-ol]: the IC50 is 460 nM in experiment [1] (setting [5]), over 10000 nM in experiment [2] (setting [6]), 6300 nM in experiment [3] (setting [7]) and over 10000 nM in experiment [4] (setting [8]).

On to `Cn1cc(-c2cc3c(N4CC5CCC(C4)N5C4CC5(COC5)C4)ccnn3c2)cn1` [Example 33, 4-(8-(2-oxaspiro[3.3]heptan-6-yl)-3,8-diazabicyclo[3.2.1]octan-3-yl)-6-(1-methyl-1H-pyrazol-4-yl)pyrrolo[1,2-b]pyridazine], for which the 50% inhibitory concentration (IC50) is 42.5 nM in experiment [1], 1350 nM in experiment [2], 740 nM in experiment [3] and 6200 nM in experiment [4].

`Cn1cc(-c2cc3c(N4CC5CCC(C4)N5[C@H]4C[C@](C)(C#N)C4)ccnn3c2)cn1` [Example 34, (1r,3r)-1-methyl-3-(3-(6-(1-methyl-1H-pyrazol-4-yl)pyrrolo[1,2-b]pyridazin-4-yl)-3,8-diazabicyclo[3.2.1]octan-8-yl)cyclobutane-1-carbonitrile]: the IC50 in experiment [1] (setting [5]) came out at 23 nM; in experiment [2] (setting [6]) it was 720 nM; in experiment [3] (setting [7]), 295 nM; in experiment [4] (setting [8]), 2550 nM.

As for `Cn1cc(-c2cc3c(N4CC5CCC(C4)N5[C@H]4C[C@@](C)(C#N)C4)ccnn3c2)cn1` [Example 35, (1s,3s)-1-methyl-3-(3-(6-(1-methyl-1H-pyrazol-4-yl)pyrrolo[1,2-b]pyridazin-4-yl)-3,8-diazabicyclo[3.2.1]octan-8-yl)cyclobutane-1-carbonitrile], the IC50 in experiment [1] (setting [5]) turned out to be 4.7 nM; in experiment [2] (setting [6]), 89 nM; in experiment [3] (setting [7]), 31.5 nM; in experiment [4] (setting [8]) it was 190 nM.

On to `Cn1cc(-c2cc3c(N4CC5CCC(C4)N5[C@H]4C[C@@H](S(C)(=O)=O)C4)ccnn3c2)cn1` [Example 36, 6-(1-methyl-1H-pyrazol-4-yl)-4-(8-((1s,3s)-3-(methylsulfonyl)cyclobutyl)-3,8-diazabicyclo[3.2.1]octan-3-yl)pyrrolo[1,2-b]pyridazine], for which the IC50 turned out to be 50.5 nM in experiment [1], 435 nM in experiment [2], 240 nM in experiment [3] and 1700 nM in experiment [4].

For the compound `Cn1cc(-c2cc3c(N4CC5CCC(C4)N5[C@H]4C[C@H](S(C)(=O)=O)C4)ccnn3c2)cn1` [Example 37, 6-(1-methyl-1H-pyrazol-4-yl)-4-(8-((1r,3r)-3-(methylsulfonyl)cyclobutyl)-3,8-diazabicyclo[3.2.1]octan-3-yl)pyrrolo[1,2-b]pyridazine], the IC50 was 310 nM in experiment [1], 4300 nM in experiment [2], 1450 nM in experiment [3] and over 10000 nM in experiment [4].

With `COCC[C@]1(C#N)C[C@H](N2C3CCC2CN(c2ccnn4cc(-c5cnn(C)c5)cc24)C3)C1` [Example 38, (1r,3r)-1-(2-methoxyethyl)-3-(3-(6-(1-methyl-1H-pyrazol-4-yl)pyrrolo[1,2-b]pyridazin-4-yl)-3,8-diazabicyclo[3.2.1]octan-8-yl)cyclobutane-1-carbonitrile], the IC50 was determined as 185 nM in experiment [1] (setting [5]), 1400 nM in experiment [2] (setting [6]), 1100 nM in experiment [3] (setting [7]) and 7300 nM in experiment [4] (setting [8]).

On to `COCC[C@]1(C#N)C[C@@H](N2C3CCC2CN(c2ccnn4cc(-c5cnn(C)c5)cc24)C3)C1` [Example 39, (1s,3s)-1-(2-methoxyethyl)-3-(3-(6-(1-methyl-1H-pyrazol-4-yl)pyrrolo[1,2-b]pyridazin-4-yl)-3,8-diazabicyclo[3.2.1]octan-8-yl)cyclobutane-1-carbonitrile], for which the IC50 worked out at 6.95 nM in experiment [1] (setting [5]), 88 nM in experiment [2] (setting [6]), 54 nM in experiment [3] (setting [7]) and 460 nM in experiment [4] (setting [8]).

Consider `COC[C@]1(C#N)C[C@H](N2C3CCC2CN(c2ccnn4cc(-c5cnn(C)c5)cc24)C3)C1` [Example 42, (1s,3s)-1-(methoxymethyl)-3-(3-(6-(1-methyl-1H-pyrazol-4-yl)pyrrolo[1,2-b]pyridazin-4-yl)-3,8-diazabicyclo[3.2.1]octan-8-yl)cyclobutane-1-carbonitrile], for which the concentration for half-maximal inhibition (IC50) came out at 100 nM in experiment [1] (setting [5]), 675 nM in experiment [2] (setting [6]), 400 nM in experiment [3] (setting [7]) and 2400 nM in experiment [4] (setting [8]).

On to `COC[C@]1(C#N)C[C@@H](N2C3CCC2CN(c2ccnn4cc(-c5cnn(C)c5)cc24)C3)C1` [Example 43, (1r,3r)-1-(methoxymethyl)-3-(3-(6-(1-methyl-1H-pyrazol-4-yl)pyrrolo[1,2-b]pyridazin-4-yl)-3,8-diazabicyclo[3.2.1]octan-8-yl)cyclobutane-1-carbonitrile], for which the IC50 in experiment [1] (setting [5]) came to 3.7 nM; in experiment [2] (setting [6]) it was 73 nM; in experiment [3] (setting [7]), 39 nM; in experiment [4] (setting [8]) it was 260 nM.

`Cn1cc(-c2cc3c(N4CC5CCC(C4)N5[C@H]4C[C@@H](CC#N)C4)ccnn3c2)cn1` [Example 44, 2-((1s,3s)-3-(3-(6-(1-methyl-1H-pyrazol-4-yl)pyrrolo[1,2-b]pyridazin-4-yl)-3,8-diazabicyclo[3.2.1]octan-8-yl)cyclobutyl)acetonitrile]: the IC50 stood at 82 nM in experiment [1] (setting [5]), 1700 nM in experiment [2] (setting [6]), 900 nM in experiment [3] (setting [7]) and 3550 nM in experiment [4] (setting [8]).

`Cn1cc(-c2cc3c(N4CC5CCC(C4)N5[C@H]4C[C@H](CC#N)C4)ccnn3c2)cn1` [Example 45, 2-((1r,3r)-3-(3-(6-(1-methyl-1H-pyrazol-4-yl)pyrrolo[1,2-b]pyridazin-4-yl)-3,8-diazabicyclo[3.2.1]octan-8-yl)cyclobutyl)acetonitrile]: the IC50 in experiment [1] (setting [5]) stood at 195 nM; in experiment [2] (setting [6]) it was 2400 nM; in experiment [3] (setting [7]), 2700 nM; in experiment [4] (setting [8]) it was 9400 nM.

For `Cn1cc(-c2cc3c(N4CC5CCC(C4)N5C4CC(F)(F)C4)ccnn3c2)cn1` [Example 52, 4-(8-(3,3-difluorocyclobutyl)-3,8-diazabicyclo[3.2.1]octan-3-yl)-6-(1-methyl-1H-pyrazol-4-yl)pyrrolo[1,2-b]pyridazine], the IC50 in experiment [1] (setting [5]) stood at 1.9 nM; in experiment [2] (setting [6]), 57.2 nM; in experiment [3] (setting [7]), 35 nM; in experiment [4] (setting [8]), 574 nM.

For the compound `COc1cc(-c2cc3c(N4CC5CCC(C4)N5C4COC4)ccnn3c2)cnn1` [Example 53, 6-(6-methoxypyridazin-4-yl)-4-(8-(oxetan-3-yl)-3,8-diazabicyclo[3.2.1]octan-3-yl)pyrrolo[1,2-b]pyridazine], the IC50 was 715 nM in experiment [1] (setting [5]), 4200 nM in experiment [2] (setting [6]), 5700 nM in experiment [3] (setting [7]) and over 10000 nM in experiment [4] (setting [8]).

Consider `COc1cc(-c2cc3c(N4CC5CCC(C4)N5C4CC(C#N)C4)ccnn3c2)cnn1` (stereo not drawn) [Example 54, 3-(3-(6-(6-methoxypyridazin-4-yl)pyrrolo[1,2-b]pyridazin-4-y1)-3,8-diazabicyclo[3.2.1]octan-8-yl)cyclobutane-1-carbonitrile], for which the IC50 in experiment [1] (setting [5]) is 72 nM; in experiment [2] (setting [6]), 420 nM; in experiment [3] (setting [7]), 305 nM; in experiment [4] (setting [8]), 1600 nM.

In the case of `N#CC1CC(N2C3CCC2CN(c2ccnn4cc(-c5ccnnc5)cc24)C3)C1` (stereo not drawn) [Example 55, 3-(3-(6-(pyridazin-4-yl)pyrrolo[1,2-b]pyridazin-4-y1)-3,8-diazabicyclo[3.2.1]octan-8-yl)cyclobutane-1-carbonitrile], the IC50 in experiment [1] amounted to 11.5 nM; in experiment [2], 130 nM; in experiment [3], 80.5 nM; in experiment [4], 625 nM.

Turning to `c1cc(-c2cc3c(N4CC5CCC(C4)N5C4COC4)ccnn3c2)cnn1` [Example 56, 4-(8-(oxetan-3-yl)-3,8-diazabicyclo[3.2.1]octan-3-yl)-6-(pyridazin-4-yl)pyrrolo[1,2-b]pyridazine], the IC50 in experiment [1] (setting [5]) is 90 nM; in experiment [2] (setting [6]), 820 nM; in experiment [3] (setting [7]), 950 nM; in experiment [4] (setting [8]), over 10000 nM.
